Measured values taken from ChEMBL document CHEMBL1201862, “PubChem BioAssay data set” (2004).
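Following 48 hours of exposure in 96-well plates, responses at five concentrations were used to interpolate endpoints linearly. At the GI50, growth is halved.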 Active and inactive are the calls of the source. Rule as the data show it: active = GI50 up to about 1.1 µM and inactive = higher.

Experiments:
Assay in all cases: growth of human tumour cells (NCI), 48 h
MDA-N = tested on: MDA-N
K562 = tested on: K562
U-251 = tested on: U-251
HCT-15 = tested on: HCT-15
UO-31 = tested on: UO-31
SK-MEL-2 = tested on: SK-MEL-2
UACC-257 = tested on: UACC-257
MCF7 = tested on: MCF7
DU-145 = tested on: DU-145
M14 = tested on: M14
SR = tested on: SR
SK-OV-3 = tested on: SK-OV-3
UACC-62 = tested on: UACC-62
SK-MEL-5 = tested on: SK-MEL-5
MDA-MB-231 = tested on: MDA-MB-231
OVCAR-3 = tested on: OVCAR-3
MDA-MB-435 = tested on: MDA-MB-435
786-0 = tested on: 786-0
NCI-H460 = tested on: NCI-H460
SF-539 = tested on: SF-539

With O=C(O)C12CC3(C(=O)O)CC(C(=O)O)(CC(C(=O)O)(C1)C3=O)C2=O the GI50 (MDA-N) was > 100 µM (inactive), the GI50 (K562) was > 100 µM (inactive) and the GI50 (U-251) was > 100 µM (inactive). The GI50 (HCT-15) was > 100 µM, the GI50 (UO-31) was > 100 µM (inactive) and the GI50 (SK-MEL-2) was > 100 µM (inactive). For the same compound, the GI50 (UACC-257) was > 100 µM (inactive), the GI50 (MCF7) was > 100 µM (inactive) and the GI50 (DU-145) was > 100 µM (inactive). For the same compound, the GI50 (M14) was > 100 µM (inactive), the GI50 (SR) was > 100 µM (inactive) and the GI50 (SK-OV-3) was > 100 µM (inactive). The GI50 (UACC-62) was > 100 µM (inactive), the GI50 (SK-MEL-5) was > 100 µM (inactive) and the GI50 (MDA-MB-231) was > 100 µM (inactive). The GI50 (OVCAR-3) was > 100 µM (inactive), the GI50 (MDA-MB-435) was > 100 µM (inactive) and the GI50 (786-0) was > 100 µM (inactive). The GI50 (NCI-H460) was > 100 µM (inactive).

In the case of O=C(O)Cc1cccc2c1OC(c1ccccc1)C(Cl)(C(=O)c1ccccc1)C2=O (stereo not given), the GI50 (MDA-N) was 14.4 µM (inactive), the GI50 (K562) was 5.52 µM (inactive) and the GI50 (U-251) was 17.2 µM (inactive). The GI50 (HCT-15) was 14.4 µM, the GI50 (UO-31) was 17.4 µM (inactive) and the GI50 (UACC-257) was 15.3 µM (inactive). For the same compound, the GI50 (MCF7) was 6.01 µM (inactive), the GI50 (SF-539) was 31.6 µM (inactive) and the GI50 (DU-145) was 24.4 µM (inactive). The GI50 (SR) was 20.4 µM (inactive), the GI50 (SK-OV-3) was > 100 µM (inactive) and the GI50 (SK-MEL-5) was 15.3 µM (inactive). The GI50 (MDA-MB-231) was 18.7 µM (inactive), the GI50 (OVCAR-3) was 17.7 µM (inactive) and the GI50 (MDA-MB-435) was 15.8 µM (inactive). For the same compound, the GI50 (786-0) was 12.9 µM (inactive) and the GI50 (NCI-H460) was 19.9 µM (inactive).

For Cc1nnc(N)nc1C/C=C/C(Sc1ccc(Cl)cc1)c1ccccc1 (stereo not given), the GI50 (MDA-N) was 6.21 µM (inactive), the GI50 (K562) was 3.44 µM (inactive) and the GI50 (U-251) was 2.91 µM (inactive). For the same compound, the GI50 (HCT-15) was 3.25 µM, the GI50 (UO-31) was 1.52 µM (inactive) and the GI50 (SK-MEL-2) was 5.66 µM (inactive). For the same compound, the GI50 (UACC-257) was 4.22 µM (inactive), the GI50 (MCF7) was 3.95 µM (inactive) and the GI50 (DU-145) was 8.02 µM (inactive). The GI50 (M14) was 4.73 µM (inactive), the GI50 (SR) was 3.35 µM (inactive) and the GI50 (SK-OV-3) was 3.86 µM (inactive). For the same compound, the GI50 (UACC-62) was 2.74 µM (inactive), the GI50 (SK-MEL-5) was 4.35 µM (inactive) and the GI50 (MDA-MB-231) was 6.76 µM (inactive). The GI50 (MDA-MB-435) was 3.15 µM (inactive), the GI50 (786-0) was 3.27 µM (inactive) and the GI50 (NCI-H460) was 3.41 µM (inactive).

For C=C1C(=O)O[C@H]2C[C@@]3(COC(C)=O)C=COC=C(COC(=O)C(C)C)C3CC12 (stereo not given in full), the GI50 (MDA-N) was 45.7 µM (inactive), the GI50 (K562) was 31.6 µM (inactive) and the GI50 (U-251) was 29.4 µM (inactive). The GI50 (HCT-15) was > 100 µM, the GI50 (UO-31) was > 100 µM (inactive) and the GI50 (UACC-257) was > 100 µM (inactive). The GI50 (MCF7) was 52.4 µM (inactive), the GI50 (SF-539) was > 100 µM (inactive) and the GI50 (DU-145) was > 100 µM (inactive). For the same compound, the GI50 (SR) was 25.9 µM (inactive), the GI50 (UACC-62) was 13.2 µM (inactive) and the GI50 (SK-MEL-5) was > 100 µM (inactive). The GI50 (MDA-MB-231) was 61.9 µM (inactive), the GI50 (OVCAR-3) was > 100 µM (inactive) and the GI50 (MDA-MB-435) was 73.5 µM (inactive). The GI50 (786-0) was > 100 µM (inactive) and the GI50 (NCI-H460) was > 100 µM (inactive).

CCCNC(=O)c1cc(NC(=O)c2cc(NC(=O)CCS(=O)(=O)OC)cn2C)cn1C was tested, and the GI50 (MDA-N) was 20.9 µM (inactive), the GI50 (K562) was 5.2 µM (inactive) and the GI50 (U-251) was 6.62 µM (inactive). The GI50 (HCT-15) was > 100 µM, the GI50 (UO-31) was > 100 µM (inactive) and the GI50 (SK-MEL-2) was 18.3 µM (inactive). For the same compound, the GI50 (UACC-257) was 24 µM (inactive), the GI50 (MCF7) was 20.5 µM (inactive) and the GI50 (DU-145) was 24.2 µM (inactive). For the same compound, the GI50 (M14) was 28.6 µM (inactive), the GI50 (SR) was > 100 µM (inactive) and the GI50 (SK-OV-3) was 9.55 µM (inactive). For the same compound, the GI50 (UACC-62) was 19.8 µM (inactive), the GI50 (SK-MEL-5) was 17.1 µM (inactive) and the GI50 (MDA-MB-231) was 33.8 µM (inactive). The GI50 (OVCAR-3) was 10.4 µM (inactive), the GI50 (MDA-MB-435) was 19.1 µM (inactive) and the GI50 (786-0) was 23.7 µM (inactive). The GI50 (NCI-H460) was > 100 µM (inactive).

With O=C1COCCN1C(=O)c1ccccc1Cl the GI50 (MDA-N) was > 100 µM (inactive), the GI50 (K562) was > 100 µM (inactive) and the GI50 (U-251) was > 100 µM (inactive). The GI50 (HCT-15) was > 100 µM, the GI50 (UO-31) was > 100 µM (inactive) and the GI50 (UACC-257) was > 100 µM (inactive). The GI50 (MCF7) was 34 µM (inactive), the GI50 (SF-539) was > 100 µM (inactive) and the GI50 (DU-145) was > 100 µM (inactive). The GI50 (M14) was > 100 µM (inactive), the GI50 (SR) was > 100 µM (inactive) and the GI50 (UACC-62) was > 100 µM (inactive). The GI50 (SK-MEL-5) was > 100 µM (inactive), the GI50 (MDA-MB-231) was > 100 µM (inactive) and the GI50 (OVCAR-3) was > 100 µM (inactive). For the same compound, the GI50 (MDA-MB-435) was > 100 µM (inactive), the GI50 (786-0) was > 100 µM (inactive) and the GI50 (NCI-H460) was > 100 µM (inactive).

With CC1CN(c2cc3c(cc2F)c(=O)c(C(=O)O)cn3-c2ccc(F)cn2)CC(C)N1 (stereo not given) the GI50 (MDA-N) was > 100 µM (inactive), the GI50 (K562) was > 100 µM (inactive) and the GI50 (U-251) was > 100 µM (inactive). For the same compound, the GI50 (HCT-15) was > 100 µM, the GI50 (UO-31) was > 100 µM (inactive) and the GI50 (UACC-257) was > 100 µM (inactive). The GI50 (MCF7) was > 100 µM (inactive), the GI50 (SF-539) was > 100 µM (inactive) and the GI50 (DU-145) was > 100 µM (inactive). For the same compound, the GI50 (M14) was > 100 µM (inactive), the GI50 (SR) was > 100 µM (inactive) and the GI50 (SK-OV-3) was > 100 µM (inactive). The GI50 (UACC-62) was > 100 µM (inactive), the GI50 (MDA-MB-231) was > 100 µM (inactive) and the GI50 (OVCAR-3) was > 100 µM (inactive). For the same compound, the GI50 (MDA-MB-435) was > 100 µM (inactive), the GI50 (786-0) was > 100 µM (inactive) and the GI50 (NCI-H460) was > 100 µM (inactive).

CO/C=C(/C(=O)OC)c1ccccc1Oc1c(F)c(F)c(F)c(F)c1F was tested, and the GI50 (MDA-N) was 41.6 µM (inactive), the GI50 (K562) was 38.7 µM (inactive) and the GI50 (U-251) was 44.7 µM (inactive). For the same compound, the GI50 (HCT-15) was 54.2 µM, the GI50 (UO-31) was 32.2 µM (inactive) and the GI50 (SK-MEL-2) was 24.2 µM (inactive). For the same compound, the GI50 (UACC-257) was 24.9 µM (inactive), the GI50 (MCF7) was 38.2 µM (inactive) and the GI50 (SF-539) was 56 µM (inactive). For the same compound, the GI50 (DU-145) was 33 µM (inactive), the GI50 (M14) was 35.3 µM (inactive) and the GI50 (SK-OV-3) was 47.9 µM (inactive). The GI50 (UACC-62) was 21.9 µM (inactive), the GI50 (SK-MEL-5) was 20.9 µM (inactive) and the GI50 (MDA-MB-231) was 29.5 µM (inactive). The GI50 (OVCAR-3) was 21.3 µM (inactive), the GI50 (MDA-MB-435) was 29.7 µM (inactive) and the GI50 (786-0) was 33.7 µM (inactive). For the same compound, the GI50 (NCI-H460) was 31.6 µM (inactive).
